In the NIST ThermoML archive (doi:10.1016/j.fluid.2018.09.026):
Where “and” joins values, the source holds several entries; their conditions need not be identical. Equal entries are not always repeated.

Settings: Liquid; for mass density: 333.15 K, Vibrating tube method; for viscosity: Vibrating wire viscometry

OCCOCCOCCO [triethylene glycol]
Settings | mass density [kg/m3]
2100 kPa | 1092.7
3070 kPa | 1093.2
5060 kPa | 1094.2
6980 kPa | 1095.2
9970 kPa | 1096.6
14840 kPa | 1099
19660 kPa | 1101.3
24670 kPa | 1103.7
29610 kPa | 1106
34530 kPa | 1108.2
39400 kPa | 1110.3
44280 kPa | 1112.5
49110 kPa | 1114.5
54040 kPa | 1116.5
59060 kPa | 1118.6
63830 kPa | 1120.5
68770 kPa | 1122.4

Settings | viscosity
333.21 K, 150 kPa | 9.306 mPa·s [middle of 4 runs]
333.21 K, 170 kPa | 9.339 mPa·s [middle of 7 runs]
333.21 K, 750 kPa | 9.338 mPa·s
333.21 K, 760 kPa | 9.422 mPa·s and 9.347 mPa·s
333.21 K, 790 kPa | 9.383 mPa·s
333.21 K, 1460 kPa | 9.386 mPa·s [middle of 4 runs]
333.21 K, 1470 kPa | 9.379 mPa·s and 9.375 mPa·s and 9.363 mPa·s
333.21 K, 4930 kPa | 9.61 mPa·s
333.21 K, 4940 kPa | 9.609 mPa·s and 9.653 mPa·s
333.21 K, 4950 kPa | 9.655 mPa·s [middle of 4 runs]
333.21 K, 4970 kPa | 9.688 mPa·s and 9.672 mPa·s
333.21 K, 4980 kPa | 9.595 mPa·s and 9.684 mPa·s
333.21 K, 4990 kPa | 9.704 mPa·s
333.21 K, 5030 kPa | 9.613 mPa·s
333.21 K, 9610 kPa | 10.02 mPa·s
333.21 K, 9620 kPa | 9.96 mPa·s and 9.899 mPa·s
333.21 K, 9680 kPa | 9.927 mPa·s
333.21 K, 9690 kPa | 9.942 mPa·s and 9.978 mPa·s
333.21 K, 9700 kPa | 9.918 mPa·s
333.21 K, 9720 kPa | 9.986 mPa·s
333.21 K, 20900 kPa | 10.78 mPa·s
333.21 K, 20930 kPa | 10.79 mPa·s
333.21 K, 20940 kPa | 10.78 mPa·s and 10.79 mPa·s
333.21 K, 29220 kPa | 11.36 mPa·s
333.21 K, 29260 kPa | 11.37 mPa·s
333.21 K, 29290 kPa | 11.28 mPa·s
333.21 K, 29370 kPa | 11.48 mPa·s
333.21 K, 29400 kPa | 11.32 mPa·s
333.21 K, 29410 kPa | 11.32 mPa·s
333.21 K, 29450 kPa | 11.36 mPa·s
333.21 K, 29460 kPa | 11.34 mPa·s
333.21 K, 29490 kPa | 11.36 mPa·s
333.21 K, 29520 kPa | 11.49 mPa·s
333.21 K, 29730 kPa | 11.35 mPa·s
333.21 K, 29740 kPa | 11.35 mPa·s
333.21 K, 29760 kPa | 11.47 mPa·s
333.21 K, 29770 kPa | 11.42 mPa·s
333.21 K, 37210 kPa | 11.94 mPa·s
333.21 K, 37260 kPa | 12.04 mPa·s
333.21 K, 37430 kPa | 11.99 mPa·s
333.21 K, 37490 kPa | 12.07 mPa·s
333.21 K, 38020 kPa | 12.13 mPa·s
333.21 K, 38150 kPa | 12.06 mPa·s
333.21 K, 38270 kPa | 12.05 mPa·s
333.21 K, 47910 kPa | 12.77 mPa·s
333.21 K, 48010 kPa | 12.75 mPa·s
333.21 K, 48280 kPa | 12.76 mPa·s
333.21 K, 49590 kPa | 12.91 mPa·s
333.21 K, 49640 kPa | 13.01 mPa·s
333.21 K, 49670 kPa | 12.99 mPa·s
333.21 K, 49700 kPa | 12.96 mPa·s
333.21 K, 49730 kPa | 12.91 mPa·s
333.21 K, 68790 kPa | 14.61 mPa·s
333.21 K, 69130 kPa | 14.52 mPa·s
333.21 K, 69650 kPa | 14.74 mPa·s
343.08 K, 200 kPa | 6.978 mPa·s and 6.969 mPa·s and 6.931 mPa·s
343.08 K, 1160 kPa | 6.971 mPa·s [middle of 4 runs]
343.08 K, 4890 kPa | 7.185 mPa·s
343.08 K, 4900 kPa | 7.179 mPa·s and 7.239 mPa·s and 7.214 mPa·s
343.08 K, 9750 kPa | 7.392 mPa·s
343.08 K, 9760 kPa | 7.403 mPa·s
343.08 K, 9770 kPa | 7.403 mPa·s
343.08 K, 20580 kPa | 8.071 mPa·s and 7.965 mPa·s
343.08 K, 20590 kPa | 8.036 mPa·s and 7.937 mPa·s
343.08 K, 20600 kPa | 8.08 mPa·s
343.08 K, 30330 kPa | 8.459 mPa·s
343.08 K, 30350 kPa | 8.469 mPa·s and 8.515 mPa·s and 8.474 mPa·s
343.08 K, 30390 kPa | 8.519 mPa·s
343.08 K, 39560 kPa | 8.994 mPa·s
343.08 K, 39590 kPa | 9.055 mPa·s
343.08 K, 39640 kPa | 9.065 mPa·s
343.08 K, 50360 kPa | 9.671 mPa·s
343.08 K, 50420 kPa | 9.687 mPa·s
343.08 K, 50470 kPa | 9.572 mPa·s
343.08 K, 50570 kPa | 9.608 mPa·s
343.08 K, 67230 kPa | 10.62 mPa·s
